# Experimental data taken from patent publication US20250228858A1, “ANTI-CANCER COMBINATION THERAPY” (Boehringer Ingelheim International GmbH, priority 2023, published 2025).
# Like-named read-outs stand apart in the source and are kept apart here.
# Key:
# [1] = test system: HER2-overexpressing human gastric cancer cell line NCI-N87; assay: NCI-N87 subcutaneous xenograft, zongertinib with T-DXd; format: in vivo, NMRI-Foxn1^nu mice; conditions: for Regressions >30% / TGI: day 22; for Regressions >30%: tumors regressed/total
# Protocol: The study is performed in human gastric cancer cell line NCI-N87 grown as subcutaneous xenografts in NMRI-Foxn1^nu mice. Day 1 was the first day, day 21 the last day of treatment and day 22 the final day of analysis. […]
# NCI-N87 is a HER2-overexpressing human gastric cancer cell line that can be obtained from the American Type Culture Collection (ATCC #CRL-5822). Cells are cultured in T175 tissue culture flasks at 37° C. and 5% CO2. The medium used is RPMI 1640 (ATCC #30-2001) supplemented with 10% fetal calf serum (FCS) (Thermo Scientific #SH 30084.03). Cultures are split twice weekly with a ratio of 1:2.
# Mice are 6- to 10-week-old female NMRI-Foxn1^nu purchased from Taconic, Denmark. After arrival at the animal facility, mice are allowed to adjust to conditions at least for 5 days before they are used for the experiment. They are housed in Macrolon® type III cages in groups of 8 to 10 under pathogen-free, controlled and standardized conditions at 21.5±1.5° C. temperature, 55±10% humidity and 12-h light-dark cycle. Standardized diet (PROVIMI KLIBA) and autoclaved tap water are provided ad libitum. Subcutaneous microchips implanted under isoflurane anaesthesia are used to identify each mouse. Cage cards showing the study number, the animal identification number, the compound, the dose level, the administration route as well as the schedule remain with the animals throughout the study.
# To establish subcutaneous tumors, NCI-N87 cells are harvested by centrifugation, washed and resuspended in PBS+5% FCS at 2.5×10^7 cells/ml. 100 μl cell suspension containing 2.5×10^6 cells is injected subcutaneously into the right flank of the mice (1 site per mouse).
# The suspension is used for a maximum of 7 days.
# T-DM1 (Kadcyla) can be purchased from Roche.
# Mice in the control group are treated with vehicle, i.e.: • (i) 0.5% Natrosol, administered once daily for the duration of the treatment intragastrally by gavage needle with a volume of 10 ml/kg body weight; and • (ii) saline (0.9%), administered once every three weeks intravenously into the tail vein with a volume of 5 ml/kg.
# Tumor volumes are measured three times a week with a caliper. The volume of each tumor [in mm^3] is calculated according to the formula: […]
# To monitor side effects of treatment, mice are inspected daily for abnormalities and body weight is determined three times a week. […] In addition, animals with tumor sizes exceeding 1500 mm^3 in diameter, with ulcerating tumors or 18% body weight loss are euthanized for ethical reasons.
# For a quick overview of possible treatment effects, the median of the tumor volume of each treatment group T is referred to the median of the control C as tumor growth inhibition (TGI) defined as: […]
# [2] = test system: HER2-overexpressing human esophagus cancer cell line OE19; format: in vivo; conditions: day 20, zongertinib 20 mg/kg qdx20 p.o., T-DXd 3 mg/kg q21dx1 i.v., alone or combined; for Regressions >30%: tumors regressed/total
# Protocol: The study is performed in human esophagus cancer cell line OE19 grown as subcutaneous xenografts in NMRI-Foxn1^nu mice. Day 1 was the first day, day 20 the final day of analysis.
# OE19 is a HER2-overexpressing human esophagus cancer cell line that can be obtained from the European Collection of Authenticated Cell Cultures (ACACC Cat. No. 960071721). Cells are cultured in T75, T175 and 5-Layer tissue culture flasks at 37° C. and 5% CO2. The medium used is RPMI 1640 (ATCC #30-2001) supplemented with 10% FCS (Thermo Scientific #SH 30084.03). Cultures are split twice weekly with a ratio of 1:3-1:4.
# To establish subcutaneous tumors, OE19 cells are harvested by centrifugation, washed and resuspended in PBS+5% FCS at 5×10^7 cells/ml. 100 μl cell suspension containing 5×10^6 cells is injected subcutaneously into the right flank of the mice (1 site per mouse).
# Tumor volumes and side effects are monitored as described in Example 1 (see paragraph 1.1.6), except that control animals are sacrificed when the median tumor volume of the group reaches a size of approximately 1190 mm^3.
# The statistical evaluation of the tumor volume and the body weight is conducted on day 20.
# [3] = test system: HER2-overexpressing human NSCLC cell line NCI-H2170; assay: NCI-H2170 subcutaneous xenograft, zongertinib with T-DXd; format: in vivo, NMRI-Foxn1^nu mice; conditions: day 21, alone or combined; for Regressions >30%: tumors regressed/total (partial response)
# Protocol: The study is performed in human NSCLC cell line NCI-H2170 grown as subcutaneous xenografts in NMRI-Foxn1^nu mice. Day 1 was the first day, day 21 the last day of treatment and final day of analysis.
# NCI-H2170 is a HER2-overexpressing NSCLC cell line that can be obtained from the American Type Culture Collection (ATCC #CRL-5928; original vial lot: 4419196). Cells are cultured in T175 tissue culture flasks at 37° C. and 5% CO2. The medium used is RPMI 1640 (ATCC #30-2001) supplemented with 10% fetal bovine serum (FBS) (Gibco #26140079). Cultures are split twice weekly with a ratio of 1:3-1:9.
# To establish subcutaneous tumors, NCI-H2170 cells are harvested by centrifugation, washed and resuspended in PBS+5% FCS at 1×10^7 cells/ml. 100 μl cell suspension containing 1×10^6 cells are injected subcutaneously into the right flank of the mice (1 site per mouse).
# Tumor volumes and side effects are monitored as described in Example 1 (see paragraph 1.1.6), except that control animals are sacrificed when the median tumor volume of the group reaches a size of approximately 1000 mm^3.
# The statistical evaluation of the tumor volume and the body weight is conducted on day 21 (last day of the study). Apart from this, statistical analysis was performed as described in Example 1 (see paragraph 1.1.7), with no evaluation of tumor growth after stop of treatment.
# [4] = zongertinib 10 mg/kg qdx21 p.o., alone or combined with T-DXd 3 mg/kg q21dx1 i.v.
# [5] = zongertinib 20 mg/kg qdx21 p.o., T-DXd 3 mg/kg q21dx1 i.v., alone or combined
# [6] = zongertinib 20 mg/kg qdx21 p.o., T-DXd 3 mg/kg q21dx1 i.v.
compound,measurement,setting,value
"C=CC(=O)NC1CCN(c2ncc3ncnc(Nc4ccc(Oc5ccc6c(c5)ncn6C)c(C)c4)c3n2)CC1 [Zongertinib, N-{1-[8-({3-methyl-4-[(1-methyl-1H-1,3-benzodiazol-5-yl)oxy]phenyl}amino)-[1,3]diazino [5,4-d]pyrimidin-2-yl]piperidin-4-yl}prop-2-enamide]",Regressions >30%,[1]; [4],5/8
same,Regressions >30%,[1]; [5],7/8
same,TGI,[1]; [4],114%
same,TGI,[1]; [5],123%
same,effect on tumor growth (median tumor volumes over time),"[1]; zongertinib 10 or 20 mg/kg/day, T-DXd 3 mg/kg once, 21-day experiment",continuously shrank more than those in mice treated with T-DXd
same,Regressions >30%,[2],0/8
same,Regressions >30%,[2]; listed as zongertinib,no tumors
same,TGI,[2],73%
same,stable disease,"[3]; number of tumors out of 8, zongertinib 20 mg/kg qdx21, T-DXd 3 mg/kg q21dx1",1
same,Regressions >30%,[3]; [6],0/8
same,Regressions >30%,"[3]; zongertinib 20 mg/kg qdx21 p.o., T-DXd 3 mg/kg q21dx1 i.v., listed as zongertinib",no partial responses
same,TGI,[3]; [6],89%
